Series [1] concerns Rat primary motor neurons. The series is described as follows: axon extension of rat primary motor neurons. The class given is cell-based. The settings on record: Neuron, cells extending axons counted after 72 hrs, values in parenthesis, read-out: reasonable range expected for the EC50. The procedure:
Rat primary motor neurons were isolated from embryonic spinal cords in accordance with the method of Henderson et al.; J Cohen and G P Wilkin (ed.), Neural Cell Culture, (1995) p69-81 which is herein incorporated by reference in its entirety. Briefly, spinal cords were dissected from day 15 embryo (E15) and incubated in a trypsin solution, and followed by DNase treatment to release spinal cord cells from tissue fragments. The cell suspension was centrifuged to remove tissue fragments. Then motor neurons were enriched by density gradient centrifugation.
Motor neurons were cultured in serum-free neurobasal medium containing insulin, forskolin, 3-isobutyl-1-methylxanthine, neurotrophic factors, Bovine serum albumin, selenium, transferrin, putrescine, progesterone and B27 supplement in tissue culture plate coated with poly-ornithine and laminin.
Rat primary motor neurons were prepared and cultured as described Example 11. […] The cells extending axons were counted in five different fields for each treatment after 72 hrs. Percentage of positive cells relative to total cells in the same magnification field was calculated and the results were expressed as means+/− standard deviations, n=5.

Series [2] concerns Mouse Neuro2A neuroblastoma cells. Nature of the series: Neuro2A cells with neurites counted after retinoic acid differentiation and GGTI-298. The class given is cell-based. The procedure:
Mouse Neuro2A neuroblastoma cells were cultured in DMEM supplemented with 10% FBS for 24 hrs. […] Then differentiation was induced by retinoic acid in DMEM supplemented with 2% FBS. An inhibitor against a G-protein, GGTI-298, was incubated. After 24 hrs incubation, cells with neurites were counted.

A word on the EC50: it is the concentration at which the effect is half-maximal. As for `CC(=O)CC/C=C(\C)CC/C=C(\C)CC/C=C(\C)CCC=C(C)C` [CNS-102, 5E,9E,13E-Geranylgeranyl acetone], the EC50 in series [1] fell in the range of 0.5 to 2 nM.

For the compound `CC(=O)CC/C=C(/C)CC/C=C(\C)CC/C=C(\C)CCC=C(C)C` [CNS-103, 5Z,9E,13E-Geranylgeranyl acetone], the 50% effective concentration (EC50) in series [1] was 8 to 12 nM. Besides, the “effect of a large quantity on viability of neuroblastoma cells” value in series [2] was “inhibited viability of neuroblastoma cells”.

The values above are taken from US20120172453A1, “METHODS FOR TREATING NEURODEGENERATIVE DISEASES” (Coyote Pharmaceuticals, Inc., priority 2010, published 2012).
